Here are results for one molecule from ChEMBL document CHEMBL6103575, “Design, synthesis and evaluation of (E)-1-(4-(2-(1H-pyrazol-5-yl)vinyl)phenyl) derivatives as next generation selective RET inhibitors overcoming RET solvent front mutations (G810C/R)” (Eur J Med Chem, 2025).

pIC50: −log10 of the molar value.

The test system of test [1] is Proto-oncogene tyrosine-protein kinase receptor Ret (Homo sapiens), P07949 [V804M]. Briefly: Inhibition of RET (unknown origin) V804M mutant at 1 uM relative to control.
Proto-oncogene tyrosine-protein kinase receptor Ret (Homo sapiens), P07949 [V804M], sequence (P07949 whole entry V804M): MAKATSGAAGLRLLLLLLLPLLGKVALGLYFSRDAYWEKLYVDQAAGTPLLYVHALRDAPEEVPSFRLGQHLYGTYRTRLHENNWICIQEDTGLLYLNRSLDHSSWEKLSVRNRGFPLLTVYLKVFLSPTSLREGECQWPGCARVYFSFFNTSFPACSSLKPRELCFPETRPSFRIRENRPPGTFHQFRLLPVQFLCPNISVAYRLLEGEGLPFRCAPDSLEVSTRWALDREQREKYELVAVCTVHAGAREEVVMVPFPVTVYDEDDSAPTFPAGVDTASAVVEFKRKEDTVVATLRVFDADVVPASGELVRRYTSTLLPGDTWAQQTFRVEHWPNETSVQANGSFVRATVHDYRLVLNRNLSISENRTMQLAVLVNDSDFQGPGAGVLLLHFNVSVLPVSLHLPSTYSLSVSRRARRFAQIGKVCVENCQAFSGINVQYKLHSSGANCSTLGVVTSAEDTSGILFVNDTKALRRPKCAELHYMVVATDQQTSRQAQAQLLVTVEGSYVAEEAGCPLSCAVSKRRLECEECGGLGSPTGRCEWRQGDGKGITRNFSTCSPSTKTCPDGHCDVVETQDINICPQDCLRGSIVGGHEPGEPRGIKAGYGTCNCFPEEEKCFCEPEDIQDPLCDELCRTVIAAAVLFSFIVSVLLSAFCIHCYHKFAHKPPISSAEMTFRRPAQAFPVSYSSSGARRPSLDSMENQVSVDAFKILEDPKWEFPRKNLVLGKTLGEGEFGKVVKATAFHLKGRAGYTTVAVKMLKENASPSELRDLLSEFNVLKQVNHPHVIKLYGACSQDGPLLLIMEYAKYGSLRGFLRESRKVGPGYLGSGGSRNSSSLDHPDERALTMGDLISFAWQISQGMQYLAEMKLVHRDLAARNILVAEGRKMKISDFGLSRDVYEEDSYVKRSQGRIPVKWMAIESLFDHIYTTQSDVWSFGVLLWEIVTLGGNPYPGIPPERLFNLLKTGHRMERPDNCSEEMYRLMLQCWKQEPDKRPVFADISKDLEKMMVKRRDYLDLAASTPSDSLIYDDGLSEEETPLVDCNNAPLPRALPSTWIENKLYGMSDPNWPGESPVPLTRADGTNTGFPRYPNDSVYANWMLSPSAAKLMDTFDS
Test [2] deals with Proto-oncogene tyrosine-protein kinase receptor Ret (Homo sapiens), P07949 [G810C]. Briefly: Inhibition of RET (unknown origin) G810C mutant at 1 uM relative to control.
Proto-oncogene tyrosine-protein kinase receptor Ret (Homo sapiens), P07949 [G810C], sequence (P07949 whole entry G810C): as the sequence (P07949 whole entry V804M) above, with M804V, G810C counted along it
The target in test [3] is BDNF/NT-3 growth factors receptor (Homo sapiens, UniProt Q16620). In words: Inhibition of TRKB (unknown origin) at 1 uM relative to control.
BDNF/NT-3 growth factors receptor, sequence (Q16620 32-822 limits assumed): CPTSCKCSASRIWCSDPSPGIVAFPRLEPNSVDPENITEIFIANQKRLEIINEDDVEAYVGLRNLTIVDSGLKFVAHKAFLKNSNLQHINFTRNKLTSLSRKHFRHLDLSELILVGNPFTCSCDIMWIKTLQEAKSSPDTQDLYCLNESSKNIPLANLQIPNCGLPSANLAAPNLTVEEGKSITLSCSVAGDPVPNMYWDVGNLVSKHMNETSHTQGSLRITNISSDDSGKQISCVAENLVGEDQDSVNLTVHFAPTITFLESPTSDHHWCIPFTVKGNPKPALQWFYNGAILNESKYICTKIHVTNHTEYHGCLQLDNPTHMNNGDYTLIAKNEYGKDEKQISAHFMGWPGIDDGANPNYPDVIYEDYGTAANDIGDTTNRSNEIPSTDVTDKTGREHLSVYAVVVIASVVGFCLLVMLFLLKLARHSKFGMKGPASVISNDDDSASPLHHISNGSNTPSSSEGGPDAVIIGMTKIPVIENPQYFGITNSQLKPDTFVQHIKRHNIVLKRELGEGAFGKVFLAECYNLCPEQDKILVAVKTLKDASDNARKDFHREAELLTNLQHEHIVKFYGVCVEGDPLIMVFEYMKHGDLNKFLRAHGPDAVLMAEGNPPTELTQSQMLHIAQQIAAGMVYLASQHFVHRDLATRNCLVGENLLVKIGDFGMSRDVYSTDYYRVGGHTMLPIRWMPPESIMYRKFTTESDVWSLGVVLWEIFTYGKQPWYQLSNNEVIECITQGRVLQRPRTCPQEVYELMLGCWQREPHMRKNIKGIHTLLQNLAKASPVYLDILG
Test [4] has as its target T1, Ephrin type-B receptor 4 (Homo sapiens) (UniProt P54760).
T1 sequence (whole entry): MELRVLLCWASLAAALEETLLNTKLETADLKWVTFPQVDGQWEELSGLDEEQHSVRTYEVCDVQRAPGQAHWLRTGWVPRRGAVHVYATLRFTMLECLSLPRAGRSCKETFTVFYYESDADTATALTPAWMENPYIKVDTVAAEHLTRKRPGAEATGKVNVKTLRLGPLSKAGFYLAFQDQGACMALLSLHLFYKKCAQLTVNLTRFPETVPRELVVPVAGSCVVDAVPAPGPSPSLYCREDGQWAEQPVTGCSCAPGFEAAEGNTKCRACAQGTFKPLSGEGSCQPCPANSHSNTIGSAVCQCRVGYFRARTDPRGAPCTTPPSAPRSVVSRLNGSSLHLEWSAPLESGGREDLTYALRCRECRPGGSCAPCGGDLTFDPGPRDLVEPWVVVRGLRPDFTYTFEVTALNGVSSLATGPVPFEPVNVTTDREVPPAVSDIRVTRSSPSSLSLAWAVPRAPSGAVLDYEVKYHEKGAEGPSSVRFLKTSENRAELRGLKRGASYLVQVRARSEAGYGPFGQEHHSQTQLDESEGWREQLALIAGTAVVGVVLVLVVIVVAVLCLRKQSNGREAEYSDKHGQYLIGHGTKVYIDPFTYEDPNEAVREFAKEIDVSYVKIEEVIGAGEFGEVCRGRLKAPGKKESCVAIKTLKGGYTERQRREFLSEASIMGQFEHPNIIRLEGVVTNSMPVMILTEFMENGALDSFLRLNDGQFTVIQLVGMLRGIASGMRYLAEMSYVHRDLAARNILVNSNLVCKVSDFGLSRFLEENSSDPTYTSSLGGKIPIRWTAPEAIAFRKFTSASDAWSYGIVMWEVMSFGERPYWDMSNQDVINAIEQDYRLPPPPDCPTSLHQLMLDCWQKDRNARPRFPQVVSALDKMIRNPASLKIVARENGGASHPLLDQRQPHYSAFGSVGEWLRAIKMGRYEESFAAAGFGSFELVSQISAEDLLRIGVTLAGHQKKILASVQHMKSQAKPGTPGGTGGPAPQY
In words: Inhibition of EPHB4 (unknown origin) at 1 uM relative to control.

For test [5], the target named is Proto-oncogene tyrosine-protein kinase receptor Ret (Homo sapiens, UniProt P07949). Briefly: Inhibition of RET (unknown origin).
Proto-oncogene tyrosine-protein kinase receptor Ret (Homo sapiens, UniProt P07949), sequence (P07949 whole entry): as the sequence (P07949 whole entry V804M) above, with M804V counted along it
Test [6] deals with Proto-oncogene tyrosine-protein kinase receptor Ret (Homo sapiens, UniProt P07949, G810R). In words: Inhibition of RET (unknown origin) G810R mutant.
Proto-oncogene tyrosine-protein kinase receptor Ret (Homo sapiens, UniProt P07949, G810R), sequence (P07949 29-1114 G810R limits assumed): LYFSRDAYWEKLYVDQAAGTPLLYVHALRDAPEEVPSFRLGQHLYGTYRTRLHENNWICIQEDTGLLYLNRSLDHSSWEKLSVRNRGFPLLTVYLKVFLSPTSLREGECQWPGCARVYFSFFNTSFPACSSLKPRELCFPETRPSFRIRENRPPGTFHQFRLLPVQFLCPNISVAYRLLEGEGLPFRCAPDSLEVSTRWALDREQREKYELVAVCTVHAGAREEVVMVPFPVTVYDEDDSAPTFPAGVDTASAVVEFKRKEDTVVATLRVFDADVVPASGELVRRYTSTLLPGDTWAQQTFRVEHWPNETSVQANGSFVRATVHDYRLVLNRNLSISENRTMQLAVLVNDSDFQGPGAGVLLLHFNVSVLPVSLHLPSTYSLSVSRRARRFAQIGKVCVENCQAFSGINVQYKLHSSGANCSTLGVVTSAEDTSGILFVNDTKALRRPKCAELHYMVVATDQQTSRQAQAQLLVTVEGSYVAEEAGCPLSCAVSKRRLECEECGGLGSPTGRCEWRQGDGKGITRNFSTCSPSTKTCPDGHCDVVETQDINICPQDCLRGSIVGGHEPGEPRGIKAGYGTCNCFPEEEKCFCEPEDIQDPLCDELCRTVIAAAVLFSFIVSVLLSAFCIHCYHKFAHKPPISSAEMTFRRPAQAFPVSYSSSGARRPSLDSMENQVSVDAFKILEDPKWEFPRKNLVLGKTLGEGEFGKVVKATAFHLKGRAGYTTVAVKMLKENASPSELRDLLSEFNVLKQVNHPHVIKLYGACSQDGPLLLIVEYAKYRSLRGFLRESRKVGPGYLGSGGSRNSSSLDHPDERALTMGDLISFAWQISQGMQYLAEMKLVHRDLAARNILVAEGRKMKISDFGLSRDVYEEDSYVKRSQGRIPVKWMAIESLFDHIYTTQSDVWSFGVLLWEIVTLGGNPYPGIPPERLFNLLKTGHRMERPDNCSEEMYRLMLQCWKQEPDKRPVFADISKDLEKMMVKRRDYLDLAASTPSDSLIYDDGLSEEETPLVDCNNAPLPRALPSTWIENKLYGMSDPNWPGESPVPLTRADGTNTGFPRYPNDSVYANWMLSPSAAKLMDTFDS
Test [7] can be described thus: Induction of apoptosis in mouse BaF3 cells harboring CCDC6-RET assessed as necrotic cells at 10 nM incubated for 48 hrs by Annexin V-PE staining based flow cytometry analysis (Rvb =0.19%). In kind it is functional.
Test [8] is described as follows: Induction of apoptosis in mouse BaF3 cells harboring CCDC6-RET assessed as viable cells at 30 nM incubated for 48 hrs by Annexin V-PE staining based flow cytometry analysis (Rvb =91.16%). The following applies: read-out: Activity. In kind it is functional.
Test [9] in a line: Induction of apoptosis in mouse BaF3 cells harboring CCDC6-RET assessed as necrotic cells at 100 nM incubated for 48 hrs by Annexin V-PE staining based flow cytometry analysis (Rvb =0.19%). In kind it is functional.
The nature of test [10]: Induction of apoptosis in mouse BaF3 cells harboring CCDC6-RET G810C mutant assessed as late apoptotic cells at 10 nM incubated for 48 hrs by Annexin V-PE staining based flow cytometry analysis (Rvb =4.30%). In kind it is functional.
A short description of test [11]: Induction of apoptosis in mouse BaF3 cells harboring CCDC6-RET G810C mutant assessed as early apoptotic cells at 100 nM incubated for 48 hrs by Annexin V-PE staining based flow cytometry analysis (Rvb =8.74%). In kind it is functional.
Test [12] is described as follows: Induction of apoptosis in mouse BaF3 cells harboring CCDC6-RET G810R mutant assessed as early apoptotic cells at 10 nM incubated for 48 hrs by Annexin V-PE staining based flow cytometry analysis (Rvb =10 %). In kind it is functional.
Test [13] is described as follows: Induction of apoptosis in mouse BaF3 cells harboring CCDC6-RET G810R mutant assessed as necrotic cells at 30 nM incubated for 48 hrs by Annexin V-PE staining based flow cytometry analysis (Rvb =0.30%). In kind it is functional.
A short description of test [14]: Induction of apoptosis in mouse BaF3 cells harboring CCDC6-RET G810R mutant assessed as late apoptotic cells at 100 nM incubated for 48 hrs by Annexin V-PE staining based flow cytometry analysis (Rvb =3.21%). In kind it is functional.
Test [15] can be described thus: Induction of apoptosis in mouse BaF3 cells harboring CCDC6-RET G810R mutant assessed as late apoptotic cells at 300 nM incubated for 48 hrs by Annexin V-PE staining based flow cytometry analysis (Rvb =3.21%). In kind it is functional.
Test [16] can be described thus: Induction of cell cycle arrest in mouse BaF3 cells harboring CCDC6-RET assessed as accumulation of cells at G0/G1 phase at 10 nM incubated for 24 hrs by propidium iodide staining based analysis (reference value: 52.51%). In kind it is functional.
The nature of test [17]: Induction of cell cycle arrest in mouse BaF3 cells harboring CCDC6-RET assessed as accumulation of cells at G2/M phase at 10 nM incubated for 24 hrs by propidium iodide staining based analysis (reference value: 34.11%). In kind it is functional.
A short description of test [18]: Induction of cell cycle arrest in mouse BaF3 cells harboring CCDC6-RET assessed as accumulation of cells at G0/G1 phase at 30 nM incubated for 24 hrs by propidium iodide staining based analysis (reference value: 52.51%). In kind it is functional.
Test [19] can be described thus: Induction of cell cycle arrest in mouse BaF3 cells harboring CCDC6-RET assessed as accumulation of cells at S phase at 30 nM incubated for 24 hrs by propidium iodide staining based analysis (reference value: 13.27%). In kind it is functional.
A short description of test [20]: Induction of cell cycle arrest in mouse BaF3 cells harboring CCDC6-RET G810C mutant assessed as accumulation of cells at G2/M phase at 30 nM incubated for 24 hrs by propidium iodide staining based analysis (reference value: 34.75%). In kind it is functional.
Test [21] can be described thus: Induction of cell cycle arrest in mouse BaF3 cells harboring CCDC6-RET G810C mutant assessed as accumulation of cells at S phase at 300 nM incubated for 24 hrs by propidium iodide staining based analysis (reference value: 12.47%). In kind it is functional.
A further test has as its system BaF3. In words: Inhibition of RET phosphorylation in mouse BaF3 cells harboring CCDC6-RET incubated for 12 hrs by Western blotting analysis. In kind it is cell-based. To be noted: dose <= 300.0 nM.

Consider `COc1cncc(-c2cn[nH]c2/C=C/c2ccc(NC(=O)Nc3cc(C(C)(C)C(F)(F)F)on3)c(Cl)c2)c1`, for which the inhibition was 98.6% in [1]; 102% in test [2]; 100% in test [3]; 92.9% in test [4]; “Dose-dependent-effect” with BaF3. For the same molecule, the pIC50 in test [5] is 8.38; in test [6], 7.49. Moreover, the Activity in test [7] is 0.14%; in test [9], 0.05%; in [10] it was 3.24%; in test [11], 37.84%; in test [12] it was 10.05%; in test [13] it was 0.14%. For the same molecule, the Activity amounted to 10.19% in test [14]; 9.06% in test [15]; 54% in test [16]; 32.46% in [17]; 56.2% in test [18]; 13.33% in test [19]. Besides, the Activity is reported as 30.79% in test [20] and 4.14% in test [21]. The viability at 0.03 µM in [8] came out at 76.8%.
